Source: PubChem BioAssay (NCI)
“And” between values parts separate entries of the source, which are not always exact repeats. Equal entries are not always repeated.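 Protocol summary: plate cells (96-well), add compound at 5 concentrations, incubate 48 h, interpolate endpoints linearly. Here, GI50 denotes the concentration required for 50% inhibition of growth. TGI denotes the concentration required for complete inhibition of growth.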

Legend:
Test in all cases: NCI-60 cell line screen, 48 h
CCRF-CEM leukemia = system: CCRF-CEM leukemia
OVCAR-8 ovarian = system: OVCAR-8 ovarian
UACC-62 melanoma = system: UACC-62 melanoma
SK-MEL-2 melanoma = system: SK-MEL-2 melanoma
HCT-15 colon = system: HCT-15 colon
OVCAR-3 ovarian = system: OVCAR-3 ovarian
SK-MEL-28 melanoma = system: SK-MEL-28 melanoma
NCI-H226 lung = system: NCI-H226 lung
HCT-116 colon = system: HCT-116 colon
HS 578T breast = system: HS 578T breast

Row | SMILES | TGI (CCRF-CEM leukemia) [µM] | TGI (OVCAR-8 ovarian) [µM] | TGI (UACC-62 melanoma) | TGI (SK-MEL-2 melanoma) | TGI (HCT-15 colon) | TGI (OVCAR-3 ovarian) | TGI (SK-MEL-28 melanoma) | TGI (NCI-H226 lung) [µM] | TGI (HCT-116 colon) | TGI (HS 578T breast) [µM] | GI50 (NCI-H226 lung) | GI50 (OVCAR-8 ovarian) | GI50 (UACC-62 melanoma) | GI50 (SK-MEL-2 melanoma) | GI50 (HCT-15 colon) | GI50 (HCT-116 colon) | GI50 (OVCAR-3 ovarian) | GI50 (SK-MEL-28 melanoma) | GI50 (HS 578T breast) | GI50 (CCRF-CEM leukemia) [µM]
1 | CCOC(=O)c1oc2c(OC)ccc3c2c1CCC3 | > 100 | > 100 | > 100 µM | > 100 µM | > 100 µM | > 100 µM | > 100 µM | – | – | – | – | – | – | – | – | – | – | – | – | –
2 | N#CCc1c(F)c(F)c(F)c(F)c1F | > 100 | > 100 | > 100 µM | – | > 100 µM | – | > 100 µM | > 100 | > 100 µM | > 100 | – | – | – | – | – | – | – | – | – | –
3 | c1ccc2c(c1)[nH]c1cnc3c4ncccc4[nH]c3c12 | > 100 | > 100 | > 100 µM | > 100 µM | > 100 µM | > 100 µM | > 100 µM | > 100 | > 100 µM | – | – | – | – | – | – | – | – | – | – | –
4 | O=C1C=CC2(CCCCCCC2=O)CC1 (centres undefined) | > 100 | > 100 | > 100 µM | – | > 100 µM | > 100 µM | > 100 µM | > 100 | > 100 µM | – | – | – | – | – | – | – | – | – | – | –
5 | Oc1ccc2ccccc2c1CCc1c(O)ccc2ccccc12 | 25.2 | 27.6 | 21.2 µM | – | 28 µM | 17.4 µM | 22.6 µM | 33.2 | 25.1 µM | 45.1 | – | – | – | – | – | – | – | – | – | –
6 | O=C(CCC(=O)Nc1ccccc1C(F)(F)F)N/N=C1\C(=N\NC(=O)CCC(=O)Nc2ccccc2C(F)(F)F)C(c2ccc3c(c2)OCO3)Oc2ccccc21 (centres undefined) | 66.3 | > 100 | > 100 µM | > 100 µM | > 100 µM | > 100 µM | > 100 µM | > 100 | > 100 µM | – | – | – | – | – | – | – | – | – | – | –
7 | O=c1cc(-c2ccc(Cl)cc2)[nH]c2ccccc12 | – | > 100 | > 100 µM | > 100 µM | > 100 µM | > 100 µM | > 100 µM | > 100 | > 100 µM | > 100 | > 100 µM | > 100 µM | 37.4 µM | > 100 µM | 12.9 µM | 32.5 µM | 31.2 µM | > 100 µM | 28.9 µM | –
8 | OCC1NC(COC2OC(CO)C(O)C(O)C2O)C(O)C(O)C1O (centres undefined) | > 100 | > 100 | > 100 µM | > 100 µM | > 100 µM | > 100 µM | > 100 µM | > 100 | > 100 µM | – | – | – | – | – | – | – | – | – | – | –
9 | COc1cc(/C=C/C(=O)c2cccc3ccccc23)cc(OC)c1OC | 7.27 | 4.58 | 21.3 µM | 12.4 µM | – | 25.7 µM | 19.4 µM | 30.3 | 13.8 µM | – | – | – | – | – | – | – | – | – | – | –
10 | CN1CCN(CCCOc2cccc3nc(Nc4cc(Cl)cc(Cl)c4)ccc23)CC1 | – | 3.48 | 3.68 µM | 3.54 µM | 2.83 µM | 3.18 µM | 3.13 µM | 4.04 | 3.47 µM | 7.07 | 1.95 µM | 1.94 µM | 1.95 µM | 1.79 µM | 1.42 µM | 1.94 µM | 1.68 µM | 1.67 µM | 2.5 µM | –
11 | Cc1ccc2c(c1)[n+](=O)c(C(=O)c1cccs1)c(C(F)(F)F)n2[O-] | 50 | – | 2.73 µM and 13.9 µM | 50 µM and 18.6 µM | 7 µM and 14.8 µM | 2.6 µM and 0.979 µM | 50 µM and 22.6 µM | 13.2 | 50 µM and 15.9 µM | – | 2.21 µM | 1.67 µM and 0.247 µM | 0.951 µM and 1.91 µM | – | 0.753 µM and 0.618 µM | 2.47 µM and 0.731 µM | 0.923 µM and 0.163 µM | 5.31 µM and 2.91 µM | – | 1.72
12 | CC(=O)N[C@H](C)[C@@H](O)[C@@H](C)[C@@H]1OC(=O)/C=C/C=C(C)\C=C\[C@]2(C)C[C@@H](NS(C)(=O)=O)C=C[C@@H]2/C=C(C)/C=C/[C@H]1C | – | > 43.5 | > 43.5 µM | > 43.5 µM | > 43.5 µM | > 43.5 µM | > 43.5 µM | > 43.5 | > 43.5 µM | > 43.5 | 0.0156 µM and 0.00593 µM | 0.017 µM | 0.00725 µM and 0.0278 µM | 3.88 µM and 24.1 µM | 0.0359 µM and 0.0337 µM | 0.00172 µM and 0.00435 µM | – | 0.008 µM and 0.0222 µM | 0.0158 µM and 0.0164 µM | –
13 | Cc1noc2cccc(O)c12 | > 100 | > 100 | > 100 µM | > 100 µM | > 100 µM | > 100 µM | > 100 µM | > 100 | > 100 µM | – | – | – | – | – | – | – | – | – | – | –
14 | CC1=C(C(=O)Nc2cccc(Cl)c2)C(c2ccccc2O)C(C(=O)Nc2cccc(Cl)c2)=C(C)N1 | 50.2 | 60.1 | – | 32.2 µM | – | 40 µM | 31.9 µM | 33.1 | – | – | – | – | – | – | – | – | – | – | – | –
15 | CCN(C(=O)N1CCN(c2cc3c(cc2F)c(=O)c(C(=O)O)cn3C2CC2)CC1)c1nc(-c2ccccc2)cs1 | – | > 100 | 5.62 µM | 4.64 µM | > 100 µM | 9.83 µM | > 100 µM | 3.74 | > 100 µM | 25.9 | 1.84 µM | 3.33 µM | 2.05 µM | 2.02 µM | 2.9 µM | 2.64 µM | 2.61 µM | 3 µM | 3.16 µM | –
16 | O/N=C1/CCC/C1=C\c1ccccc1 | > 100 | > 100 | > 100 µM | > 100 µM | > 100 µM | > 100 µM | > 100 µM | > 100 | > 100 µM | – | – | – | – | – | – | – | – | – | – | –
17 | Cc1ccccc1/C=C/c1csnn1 | > 100 | > 100 | > 100 µM | > 100 µM | > 57.5 µM | > 100 µM | > 100 µM | > 100 | > 59.3 µM | – | – | – | – | – | – | – | – | – | – | –
18 | O=C1OC(CC(=O)c2ccc(F)cc2)C(Cl)=C1Cl (centres undefined) | > 100 | 40.2 | 32.2 µM | 45 µM | 35.5 µM | 38.7 µM | > 100 µM | 33.8 | 46.2 µM | – | – | – | – | – | – | – | – | – | – | –
19 | NC1=NN(c2ccccc2)C(=O)C1C(=O)C(=O)Nc1ccc(Cl)cc1 (centres undefined) | > 100 | > 100 | > 100 µM | > 100 µM | > 100 µM | > 100 µM | > 100 µM | > 100 | > 100 µM | – | – | – | – | – | – | – | – | – | – | –
20 | CC(=O)OC1C[C@H]2C(OC(=O)c3ccccc3)C3C4(OC(C)=O)COC4C[C@H](OC(C)=O)[C@@]3(C)C(OC(C)=O)[C@H](OC(C)=O)C(=C1C)C2(C)C (some centres undefined) | > 100 | > 100 | > 100 µM | 97.8 µM | > 100 µM | > 100 µM | > 100 µM | > 100 | > 100 µM | – | – | – | – | – | – | – | – | – | – | –
